Assays:
Format in all cases: cell-based
[1] = tested on: C2C12 cells (murine myoblast cells); experiment: Proliferation assay (alamarBlue) with C2C12 cells
Source text: (§1) The antiproliferative activities of compounds falling under formula (Ia), (Ib) and (Ic), respectively, were investigated on cells or cell lines originating from a disorder of the haematopoietic system, including the myeloid cell compartment and the lymphoid cell compartment (T-cells and B-cells), the neuroendocrine system, the cervix, the breast, the ovaries, the lung, the gastrointestinal tract, and the mucosal epithelium, as well as from the skin epithelium and from the muscle. To this end, HL-60 cells, NB-4 cells, HH cells, RPMI-8402 cells, TANOUE cells, TT cells, HeLa cells, MDA-MB-231 cells, FU-OV-1 cells, LOU-NH91 cells, 23132/87 cells, CAL-27 cells, BHY cells, SCC-25 cells, A-431 cells, human primary epidermal keratinocytes (HPEK), and C2C12 cells were seeded into 96-well plates suitable for fluorescence assays (CORNING #3598) at following initial cell numbers: 1000 cells per well for HL-60; 1000 cells per well for NB-4; 5000 cells per well for HH; 5000 cells per well for RPMI-8402; 1500 cells per well for TANOUE; 9000 cells per well for TT; 2000 cells per well for HeLa; 3000 cells per well for MDA-MB-231; 3000 cells per well for FU-OV-1; 4000 cells per well for LOU-NH91; 2000 cells per well for 23132/87; 2000 cells per well for CAL-27; 1500 cells per well for BHY; 1500 cells per well for SCC-25; 700 cells per well for A-431; 1000 cells per well for HPEK; 500 cells per well for C2C12. […] The readout was taken with a multi-well plate-reader in the fluorescence mode with applying a filter for excitation at 560 nm (band width 10 nm) and for emission at 590 nm (band width 10 nm). […]
(§2) The assays were performed in duplicate or more replicates of independent single experiments each containing a six-fold replicate for every condition. For every individual plate, the measured fluorescence intensity values of the conditions with compound treatment were normalized against the corresponding equally weighted arithmetic mean of the fluorescence intensity values of the six DMSO treated control wells in order to obtain the relative values to a baseline level of 1.0. […]

[2] = tested on: RPMI-8402 cells (human T cell acute lymphoblastic leukemia cells); experiment: Proliferation assay (alamarBlue) with RPMI-8402 cells
Source text: (§3) The antiproliferative activities of compounds falling under formula (Ia), (Ib) and (Ic), respectively, were investigated on cells or cell lines originating from a disorder of the haematopoietic system, including the myeloid cell compartment and the lymphoid cell compartment (T-cells and B-cells), the neuroendocrine system, the cervix, the breast, the ovaries, the lung, the gastrointestinal tract, and the mucosal epithelium, as well as from the skin epithelium and from the muscle. To this end, HL-60 cells, NB-4 cells, HH cells, RPMI-8402 cells, TANOUE cells, TT cells, HeLa cells, MDA-MB-231 cells, FU-OV-1 cells, LOU-NH91 cells, 23132/87 cells, CAL-27 cells, BHY cells, SCC-25 cells, A-431 cells, human primary epidermal keratinocytes (HPEK), and C2C12 cells were seeded into 96-well plates suitable for fluorescence assays (CORNING #3598) at following initial cell numbers: 1000 cells per well for HL-60; 1000 cells per well for NB-4; 5000 cells per well for HH; 5000 cells per well for RPMI-8402; 1500 cells per well for TANOUE; 9000 cells per well for TT; 2000 cells per well for HeLa; 3000 cells per well for MDA-MB-231; 3000 cells per well for FU-OV-1; 4000 cells per well for LOU-NH91; 2000 cells per well for 23132/87; 2000 cells per well for CAL-27; 1500 cells per well for BHY; 1500 cells per well for SCC-25; 700 cells per well for A-431; 1000 cells per well for HPEK; 500 cells per well for C2C12. The cells were treated with compounds at indicated final concentrations (diluted from the 1000× stock-solutions in DMSO to a final DMSO concentration of 0.1% v/v in H2O (Water For Injection, WFI, Fisherscientific #10378939)) or with the empty carrier DMSO at 0.1% v/v as control for 5 days. At day 5 after starting the treatments the cells were subjected to the alamarBlue® Proliferation Assay (Bio-Rad Serotec GmbH, BUF012B) according to the protocol of the manufacturer. The readout was taken with a multi-well plate-reader in the fluorescence mode with applying a filter for excitation at 560 nm (band width 10 nm) and for emission at 590 nm (band width 10 nm). Control treatments for growth inhibition with commercial compounds such as Methotrexate (MTREX) and Resveratrol (RES) were included on every plate. Some of the test compounds of the present invention were obtained and applied as their salts. According cases are indicated in the column “Specification” in Table 55 to Table 92 and by their sum formula in Table 93.
(§4) The assays were performed in duplicate or more replicates of independent single experiments each containing a six-fold replicate for every condition. For every individual plate, the measured fluorescence intensity values of the conditions with compound treatment were normalized against the corresponding equally weighted arithmetic mean of the fluorescence intensity values of the six DMSO treated control wells in order to obtain the relative values to a baseline level of 1.0.
(§5) Two independent outlier analyses were performed according to the methods by Peirce and Chauvenet (Ross, Journal of Engineering Technology 2003, 1-12). Outliers confirmed by at least one of the methods were excluded from the calculations but not more than one value out of six per compound within a single experiment. The weighted arithmetic mean (here abbreviated as AVEw) for each compound was calculated from the normalized values over all independent replicates of the single experiments comprising the six replicates each. The corresponding standard deviation for the weighted arithmetic mean was calculated according to the method described by Bronstein et al. (Bronstein, Semendjajew, Musiol, Müihlig, Taschenbuch der Mathematik, 5th edition 2001 (German), publisher: Verlag Harri Deutsch, Frankfurt am Main and Thun) and was combined with the Gauß' error propagation associated with the performed calculation for the normalization. The resulting standard deviation is herein referred to as “combined standard deviation”. […]

[3] = tested on: HH cells (human cutaneous T-cell lymphoma cells); experiment: Proliferation assay (alamarBlue) with HH cells
Source text: as §3, §4, §5

[4] = tested on: human epidermal keratinocyte progenitors (HPEKp, pooled); experiment: Proliferation assay (alamarBlue) with HPEKp cells
Source text: as §1, §2

[5] = tested on: SCC-25 cells (human tongue squamous cell carcinoma cells); experiment: Proliferation assay (alamarBlue) with SCC-25 cells; conditions: for Activity Range (weighted arithmetic mean AVEw of normalized fluorescence intensity, relative to DMSO basis level 1.0): 20 μM; for Activity Range (weighted arithmetic mean of normalized fluorescence intensity, relative to DMSO basis level 1.0): control at 40 μM
Source text: as §3, §4, §5

[6] = tested on: MDA-MB-231 cells (human breast carcinoma cells); experiment: Proliferation assay (alamarBlue) with MDA-MB-231 cells; conditions: compound at 20 μM
Source text: as §3, §4, §5

[7] = tested on: LOU-NH91 cells (human lung squamous cell carcinoma cells); experiment: Proliferation assay (alamarBlue) with LOU-NH91 cells; conditions: for Activity Range (weighted arithmetic mean AVEw of normalized fluorescence intensity, relative to DMSO basis level 1.0): 20 μM; for Activity Range (weighted arithmetic mean of normalized fluorescence intensity, relative to DMSO basis level 1.0): control at 40 μM
Source text: as §3, §4, §5

With `Oc1ccc(C=Cc2cc(O)cc(O)c2)cc1` [RES, Resveratrol] the “Activity Range: weighted arithmetic mean (AVEw) of normalized fluorescence intensity, relative to DMSO basis level of 1.0” value ([1]; compounds and controls at 20 μM) was 0.8 ± 0.0, the “Activity Range: weighted arithmetic mean (AVEw) of normalized fluorescence intensity, relative to DMSO basis level of 1.0” value ([1]; control at 40 μM) was 0.2 ± 0.1 and the “Activity Range: weighted arithmetic mean (AVEw) of normalized fluorescence intensity, proliferation assay with RPMI-8402 cells” value ([2]; 20 μM, relative to DMSO basis level 1.0, Table 61 (novel compounds)) was 0.6 ± 0.0. The “Activity Range: weighted arithmetic mean (AVEw) of normalized fluorescence intensity, proliferation assay with RPMI-8402 cells” value ([2]; 20 μM, relative to DMSO basis level 1.0, Table 62 (compounds disclosed in PCT/EP2018/054686)) was 0.6 ± 0.0, the “Activity Range: weighted arithmetic mean (AVEw) of normalized fluorescence intensity, proliferation assay with RPMI-8402 cells” value ([2]; control at 40 μM, relative to DMSO basis level 1.0, Table 61) was 0.1 ± 0.0 and the “Activity Range: weighted arithmetic mean (AVEw) of normalized fluorescence intensity, proliferation assay with RPMI-8402 cells” value ([2]; control at 40 μM, relative to DMSO basis level 1.0, Table 62) was 0.1 ± 0.0. For the same compound, the “Activity Range: weighted arithmetic mean (AVEw) of normalized fluorescence intensity, proliferation assay with HH cells” value ([3]; 20 μM, relative to DMSO basis level 1.0, Table 59 (novel compounds)) was 0.6 ± 0.1, the “Activity Range: weighted arithmetic mean (AVEw) of normalized fluorescence intensity, proliferation assay with HH cells” value ([3]; control at 40 μM, relative to DMSO basis level 1.0, Table 59) was 0.4 ± 0.1 and the “Activity Range: weighted arithmetic mean (AVEw) of normalized fluorescence intensity, proliferation assay with HH cells” value ([3]; control at 40 μM, relative to DMSO basis level 1.0, Table 60) was 0.4 ± 0.1. For the same compound, the “Activity Range: weighted arithmetic mean (AVEw) of normalized fluorescence intensity, relative to DMSO basis level of 1.0” value ([4]; control at 20 μM) was 0.2 ± 0.0, the “Activity Range: weighted arithmetic mean (AVEw) of normalized fluorescence intensity, relative to DMSO basis level of 1.0” value ([4]; control at 40 μM) was 0.2 ± 0.0 and the “Activity Range (weighted arithmetic mean AVEw of normalized fluorescence intensity, relative to DMSO basis level 1.0)” value ([5]; Table 82 (novel compounds)) was 0.4 ± 0.1. The “Activity Range (weighted arithmetic mean AVEw of normalized fluorescence intensity, relative to DMSO basis level 1.0)” value ([5]; Table 83 (compounds disclosed in PCT/EP2018/054686)) was 0.4 ± 0.1, the “Activity Range (weighted arithmetic mean of normalized fluorescence intensity, relative to DMSO basis level 1.0)” value ([5]; Table 82) was 0.1 ± 0.0 and the “Activity Range (weighted arithmetic mean of normalized fluorescence intensity, relative to DMSO basis level 1.0)” value ([5]; Table 83) was 0.1 ± 0.0. The activity at 20 µM ([6]; Homo sapiens, Table 69 (novel compounds), read-out: Activity Range: weighted arithmetic mean (AVEw) of normalized fluorescence intensity relative to DMSO basis level 1.0) was 60%, the “Activity Range: weighted arithmetic mean (AVEw) of normalized fluorescence intensity relative to DMSO basis level 1.0” value ([6]; Table 70 (compounds of PCT/EP2018/054686)) was 0.6 ± 0.0 and the “Activity Range (weighted arithmetic mean AVEw of normalized fluorescence intensity, relative to DMSO basis level 1.0)” value ([7]; Table 73 (novel compounds)) was 0.9 ± 0.1. The “Activity Range (weighted arithmetic mean AVEw of normalized fluorescence intensity, relative to DMSO basis level 1.0)” value ([7]; Table 74 (compounds disclosed in PCT/EP2018/054686)) was 0.9 ± 0.1, the “Activity Range (weighted arithmetic mean of normalized fluorescence intensity, relative to DMSO basis level 1.0)” value ([7]; Table 73) was 0.7 ± 0.0 and the “Activity Range (weighted arithmetic mean of normalized fluorescence intensity, relative to DMSO basis level 1.0)” value ([7]; Table 74) was 0.7 ± 0.0.

From US20220354949A1, “NOVEL COMPOUNDS” (XENIOPRO GmbH, priority 2018, published 2022)
